Measurements from ChEMBL document CHEMBL6182912, “Development of Novel Phthalazinone-Triazole Hybrids as Potential Antidiabetic Agents Targeting GLUT4 Translocation in Skeletal Muscle” (J Med Chem, 2025).
Active and inactive are the calls of the source. The calls are words filed in the database; no cut-off is given here.

Assays:
[1] = target: T1, Solute carrier family 2, facilitated glucose transporter member 4 (Rattus norvegicus) (UniProt P19357); assay: Modulation of GLUT4 translocation in rat L6-GLUT4myc skeletal muscle cells assessed as increase in surface GLUT4myc level by measuring fold stimulation at 10 uM measured after 16 hrs by O-phenylenediamine assay relative to control; assay type: cell-based; conditions: filed as modulator
T1 sequence (whole entry): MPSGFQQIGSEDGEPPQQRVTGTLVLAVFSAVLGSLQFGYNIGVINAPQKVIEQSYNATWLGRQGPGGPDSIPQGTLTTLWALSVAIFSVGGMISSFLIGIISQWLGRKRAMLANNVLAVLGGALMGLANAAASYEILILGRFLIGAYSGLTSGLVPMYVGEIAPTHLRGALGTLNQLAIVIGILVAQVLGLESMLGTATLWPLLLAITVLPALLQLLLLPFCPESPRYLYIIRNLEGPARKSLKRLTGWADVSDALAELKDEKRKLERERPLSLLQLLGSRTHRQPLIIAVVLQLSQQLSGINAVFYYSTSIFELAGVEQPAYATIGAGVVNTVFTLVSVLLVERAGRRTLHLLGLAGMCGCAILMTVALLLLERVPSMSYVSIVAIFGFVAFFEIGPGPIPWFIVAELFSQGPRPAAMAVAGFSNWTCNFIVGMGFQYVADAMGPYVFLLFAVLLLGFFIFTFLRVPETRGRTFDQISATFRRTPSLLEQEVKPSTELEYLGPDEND

[2] = target: T1, Solute carrier family 2, facilitated glucose transporter member 4 (Rattus norvegicus); assay: Modulation of GLUT4 translocation in rat L6-GLUT4myc skeletal muscle cells assessed as increase in AMPK-alpha phosphorylation at Thr172 at 10 uM incubated for 16 hrs by Western blot analysis; assay type: cell-based; conditions: filed as modulator
[3] = target: T1, Solute carrier family 2, facilitated glucose transporter member 4 (Rattus norvegicus); assay: Modulation of insulin-stimulated GLUT4 translocation in rat L6-GLUT4myc skeletal muscle cells assessed as increase in AKT phosphorylation Ser473 at 10 uM pretreated with compound for 16 hrs followed by insulin addition measured after 10 mins by Western blot analysis; assay type: cell-based; conditions: filed as modulator, time 970.0 min
Rattus norvegicus [4] = assay: Anti-hyperglycemic effect in STZ-induced diabetic male Sprague-Dawley rat assessed as reduction in blood glucose level at 100 mg/kg, po measured after 5 hrs relative to control; assay type: functional; set-up: scale not given: the % may be the effect or the level left
[5] = Stability in SPF at pH 7.4 assessed as compound remaining measured after 120 mins by UPLC analysis; assay type: physicochemical; conditions: read-out: Stability
[6] = Stability in rat plasma assessed as compound remaining measured after 120 mins by UPLC analysis; assay type: ADME, cell-free; conditions: read-out: Stability
[7] = target: T1, Solute carrier family 2, facilitated glucose transporter member 4 (Rattus norvegicus); assay: (§1) Modulation of insulin-stimulated GLUT4 translocation in rat L6-GLUT4myc skeletal muscle cells assessed as increase in surface GLUT4myc level at 10 uM pretreated with compound overnight and cultured final 3 hrs of compound treatment in serum-starved medium followed by insulin addition measured after 20 mins by O-phenylenediamine assay; assay type: cell-based; conditions: filed as modulator
[8] = Stability in SGF at pH 1.2 assessed as compound remaining measured after 120 mins by UPLC analysis; assay type: physicochemical; conditions: read-out: Stability
Rattus norvegicus [9] = assay: Anti-hyperglycemic effect in STZ-induced diabetic male Sprague-Dawley rat assessed as reduction in blood glucose level at 100 mg/kg, po; assay type: functional, organism-based; conditions: time 30-300 min
L6-GLUT4myc [10] = assay: Effect on IRS1 mRNA level in rat L6-GLUT4myc at 10 uM incubated for 16 hrs by RT-PCR analysis; assay type: functional, cell-based
[11] = target: T1, Solute carrier family 2, facilitated glucose transporter member 4 (Rattus norvegicus); assay: Modulation of insulin-stimulated GLUT4 translocation in rat L6-GLUT4myc skeletal muscle cells assessed as increase in AKT phosphorylation Ser473 at 10 uM pretreated with compound and wortmannin for 16 hrs followed by insulin addition measured after 10 mins by Western blot analysis; assay type: cell-based; conditions: time 970.0 min
[12] = Stability in SIF at pH 6.8 assessed as compound remaining measured after 120 mins by UPLC analysis; assay type: physicochemical; conditions: read-out: Stability
[13] = target: T1, Solute carrier family 2, facilitated glucose transporter member 4 (Rattus norvegicus); assay: Modulation of GLUT4 translocation in rat L6-GLUT4myc skeletal muscle cells assessed as increase in surface GLUT4myc level measured after 16 hrs by O-phenylenediamine assay; assay type: cell-based; conditions: filed as modulator, dose 5-25 µM
[14] = target: T1, Solute carrier family 2, facilitated glucose transporter member 4 (Rattus norvegicus); assay: Modulation of GLUT4 translocation in rat L6-GLUT4myc skeletal muscle cells assessed as increase in GLUT4 mRNA level at 10 uM incubated for 16 hrs by RT-PCR analysis; assay type: cell-based; conditions: filed as modulator
L6-GLUT4myc [15] = assay: Effect on AKT2 mRNA level in rat L6-GLUT4myc at 10 uM incubated for 16 hrs by RT-PCR analysis; assay type: functional, cell-based
[16] = target: T1, Solute carrier family 2, facilitated glucose transporter member 4 (Rattus norvegicus); assay: as §1, with “and wortmannin for 16 hrs” for “overnight”; assay type: cell-based; conditions: time 980.0 min
[17] = target: T1, Solute carrier family 2, facilitated glucose transporter member 4 (Rattus norvegicus); assay: Modulation of GLUT4 translocation in rat L6-GLUT4myc skeletal muscle cells assessed as increase in surface GLUT4myc level by measuring fold stimulation at 500 uM measured after 16 hrs by O-phenylenediamine assay relative to control; assay type: cell-based; conditions: filed as modulator
[18] = target: T1, Solute carrier family 2, facilitated glucose transporter member 4 (Rattus norvegicus); assay: Modulation of GLUT4 translocation in rat L6-GLUT4myc skeletal muscle cells assessed as increase in surface GLUT4myc level by measuring fold stimulation at 1 mM measured after 1 hr by O-phenylenediamine assay relative to control; assay type: cell-based; conditions: filed as modulator
Rattus norvegicus [19] = assay: Anti-hyperglycemic effect in STZ-induced diabetic male Sprague-Dawley rat assessed as reduction in blood glucose level at 300 mg/kg, po measured after 5 hrs relative to control; assay type: functional; set-up: scale not given: the % may be the effect or the level left
[20] = target: T1, Solute carrier family 2, facilitated glucose transporter member 4 (Rattus norvegicus); assay: Modulation of insulin-stimulated GLUT4 translocation in rat L6-GLUT4myc skeletal muscle cells assessed as increase in AKT phosphorylation Ser473 pretreated with compound for 16 hrs followed by insulin addition measured after 10 mins by Western blot analysis; assay type: cell-based; conditions: time 970.0 min
[21] = target: T1, Solute carrier family 2, facilitated glucose transporter member 4 (Rattus norvegicus); assay: as §1, with “50 nM” for “10 uM”, “for 16 hrs” for “overnight”; assay type: cell-based; conditions: time 980.0 min

| Compound | fold change (FC) [1] | further results |
| --- | --- | --- |
| CC(C)c1ccc(-n2cc(CNC(=O)c3cc(Cc4n[nH]c(=O)c5ccccc45)ccc3F)nn2)cc1 | 1.1 |  |
| Cc1ccc(-n2cc(CNC(=O)c3ccc(Cc4n[nH]c(=O)c5ccccc45)cc3)nn2)cc1 | 0.77 |  |
| O=C(NCc1cn(-c2ccc(Cl)cc2)nn1)c1ccc(Cc2n[nH]c(=O)c3ccccc23)cc1 | 1.09 |  |
| O=C(NCc1cn(-c2ccc(OC(F)(F)F)cc2)nn1)c1cc(Cc2n[nH]c(=O)c3ccccc23)ccc1F | 1.59 |  |
| COc1cc(-n2cc(CNC(=O)c3cc(Cc4n[nH]c(=O)c5ccccc45)ccc3F)nn2)cc(OC)c1OC | 1.08 |  |
| O=C(NCc1cn(-c2ccc(Br)cc2)nn1)c1cc(Cc2n[nH]c(=O)c3ccccc23)ccc1F | 1.87 |  |
| O=C(NCc1cn(-c2ccccc2)nn1)c1cc(Cc2n[nH]c(=O)c3ccccc23)ccc1F | 1.93 | Activity [2]: Active; Activity [3]: Active; Activity (Rattus norvegicus [4]): ~38.7%; remaining at 2 h [5]: ≤ 60%; remaining at 2 h [6]: ≤ 60%; Activity [7]: Active; remaining at 2 h [8]: ≤ 60%; Activity (Rattus norvegicus [9]): Time-dependent-effect; Activity (L6-GLUT4myc [10]): No effect; Activity [11]: inactive; remaining at 2 h [12]: ≤ 60%; Activity [13]: Dose-dependent-effect; Activity [14]: Active; Activity (L6-GLUT4myc [15]): No effect; Activity [16]: inactive |
| O=C(NCc1cn(-c2ccc(OC(F)(F)F)cc2)nn1)c1ccc(Cc2n[nH]c(=O)c3ccccc23)cc1 | 1.04 |  |
| O=C(NCc1cn(-c2ccc(F)cc2F)nn1)c1cc(Cc2n[nH]c(=O)c3ccccc23)ccc1F | 1.75 |  |
| COc1ccccc1-n1cc(CNC(=O)c2cc(Cc3n[nH]c(=O)c4ccccc34)ccc2F)nn1 | 1.01 |  |
| O=C(OCc1cn(-c2ccc(F)cc2)nn1)c1ccc(Cc2n[nH]c(=O)c3ccccc23)cc1 | 0.99 |  |
| O=C(NCc1cn(-c2cccc3ccccc23)nn1)c1cc(Cc2n[nH]c(=O)c3ccccc23)ccc1F | 1.15 |  |
| O=C(OCc1cn(-c2ccccc2)nn1)c1cc(Cc2n[nH]c(=O)c3ccccc23)ccc1F |  | fold change (FC) [17]: 0.97 |
| O=C(NCc1cn(-c2ccccc2)nn1)c1ccc(Cc2n[nH]c(=O)c3ccccc23)cc1 | 1.48 |  |
| O=C(NCc1cn(-c2ccc(F)cc2)nn1)c1cc(Cc2n[nH]c(=O)c3ccccc23)ccc1F | 1.98 |  |
| NC(=O)c1ncn([C@@H]2O[C@H](CO)[C@@H](O)[C@H]2O)c1N |  | fold change (FC) [18]: 1.56 |
| Cc1ccc(-n2cc(COC(=O)c3cc(Cc4n[nH]c(=O)c5ccccc45)ccc3F)nn2)cc1 | 0.98 |  |
| O=C(NCc1cn(-c2ccccc2)nn1)c1ccc(Cc2n[nH]c(=O)c3ccccc23)cc1F | 1.36 |  |
| Cc1ccc(-n2cc(CNC(=O)c3cc(Cc4n[nH]c(=O)c5ccccc45)ccc3F)nn2)cc1 | 1.92 | Activity [13]: Dose-dependent-effect |
| Cc1ccc(-n2cc(COC(=O)c3ccc(Cc4n[nH]c(=O)c5ccccc45)cc3)nn2)cc1 | 0.9 |  |
| CC(C)c1ccc(-n2cc(COC(=O)c3cc(Cc4n[nH]c(=O)c5ccccc45)ccc3F)nn2)cc1 | 1.52 |  |

| Compound | fold change (FC) [1] | further results |
| --- | --- | --- |
| O=C(OCc1cn(-c2ccccc2)nn1)c1ccc(Cc2n[nH]c(=O)c3ccccc23)cc1 | 0.94 |  |
| O=C(OCc1cn(-c2ccc(Br)cc2)nn1)c1cc(Cc2n[nH]c(=O)c3ccccc23)ccc1F | 1.39 |  |
| O=C(NCc1cn(-c2ccc(Cl)c(Cl)c2)nn1)c1cc(Cc2n[nH]c(=O)c3ccccc23)ccc1F | 1.49 |  |
| O=C(NCc1cn(-c2ccc(Cl)cc2)nn1)c1cc(Cc2n[nH]c(=O)c3ccccc23)ccc1F | 1.53 |  |
| O=C(NCc1cn(-c2ccc(C(F)(F)F)cc2)nn1)c1cc(Cc2n[nH]c(=O)c3ccccc23)ccc1F | 1.77 |  |
| COc1cccc(Cl)c1-n1cc(CNC(=O)c2cc(Cc3n[nH]c(=O)c4ccccc34)ccc2F)nn1 | 1.14 |  |
| O=C(NCc1cn(-c2ccc(F)cc2)nn1)c1ccc(Cc2n[nH]c(=O)c3ccccc23)cc1 | 1.11 |  |
| O=C(NCc1cn(-c2ccccc2F)nn1)c1cc(Cc2n[nH]c(=O)c3ccccc23)ccc1F | 0.86 |  |
| COc1ccc(-n2cc(CNC(=O)c3ccc(Cc4n[nH]c(=O)c5ccccc45)cc3)nn2)cc1 | 1.12 |  |
| CN(C)C(=N)NC(=N)N [METFORMIN] |  | fold change (FC) [17]: 1.65; Activity (Rattus norvegicus [19]): 64.7% |
| C#CCNC(=O)c1ccc(Cc2n[nH]c(=O)c3ccccc23)cc1 | 1.17 |  |
| COC[C@H]1OC(=O)c2coc3c2[C@@]1(C)C1=C(C3=O)[C@@H]2CCC(=O)[C@@]2(C)C[C@H]1OC(C)=O |  | Activity [20]: inactive; Activity [21]: inactive |
| O=C(OCc1cn(-c2ccc(F)cc2)nn1)c1cc(Cc2n[nH]c(=O)c3ccccc23)ccc1F | 1.03 |  |
| O=C(NCc1cn(-c2ccc(Br)cc2)nn1)c1ccc(Cc2n[nH]c(=O)c3ccccc23)cc1 | 0.89 |  |
| O=C(NCc1cn(-c2cccc(F)c2)nn1)c1cc(Cc2n[nH]c(=O)c3ccccc23)ccc1F | 0.84 |  |
| O=C(OCc1cn(-c2ccc(Br)cc2)nn1)c1ccc(Cc2n[nH]c(=O)c3ccccc23)cc1 | 1.54 |  |
| COc1ccc(-n2cc(CNC(=O)c3cc(Cc4n[nH]c(=O)c5ccccc45)ccc3F)nn2)cc1 | 1.92 | Activity [13]: Dose-dependent-effect |
| COc1cccc(-n2cc(CNC(=O)c3cc(Cc4n[nH]c(=O)c5ccccc45)ccc3F)nn2)c1 | 1.4 |  |
| COc1cccc(OC)c1-n1cc(CNC(=O)c2cc(Cc3n[nH]c(=O)c4ccccc34)ccc2F)nn1 | 1.31 |  |
| COc1ccc(OC)c(-n2cc(CNC(=O)c3cc(Cc4n[nH]c(=O)c5ccccc45)ccc3F)nn2)c1 | 1.29 |  |
| COc1ccc(-n2cc(COC(=O)c3cc(Cc4n[nH]c(=O)c5ccccc45)ccc3F)nn2)cc1 | 1.31 |  |
